Source: patent US7582638B2, “Pyrazole-isoquinoline urea derivatives as p38 kinase inhibitors” (Eli Lilly and Company, priority 2005, dated 2009)

Assays:
[1] = biological target: p38 kinase enzyme; assay: Inhibition of p38 kinase (33P-ATP, EGF peptide 661-681 substrate); type: biochemical; details: 40 minutes at 30° C.
Method: The kinase buffer solution is prepared by combining 2.5 mL 1M Tris-HCl (pH 7.5), 0.1 mL 1 M dithiothreitol, 1.0 mL 1 M magnesium chloride, and 300 μL 1% Triton X-100 and diluting to 100 mL with water. 84 mL of this kinase buffer solution is combined with 16 mL DMSO to prepare the 16% DMSO solution.
The 200 μM ATP solution is prepared by adding 102.6 μL 10 mM aqueous ATP, 25 μL ^33P-ATP, and 163.5 μL of 4 mM aqueous Epidermal Growth Factor Peptide 661-681 (Biomol, Catalog #P-121) in 5 mL kinase buffer solution.
The p38 kinase enzyme solution is prepared by dissolving 9.5 μL concentrated enzyme solution (250 ng p38 enzyme/μL kinase buffer solution) in 1536 μL kinase buffer solution.
An 80 μM solution of each test compound and control compound are prepared by dissolving 2 μL of a 10 mM stock solution of the respective compounds in dimethylsulfoxide in 248 μL of the 16% DMSO solution in a Costar 96-well microtiter plate. […]
10 μL of serially diluted compound is placed with a Beckman Multimek 96-well automated liquid handler to the assay plate. […] The plates are allowed to sit for 30 min and counted on a PE/Wallac Microbeta Trilux scintillation counter for ^33P-isotope.
The compound exemplified in Example 12 is initially tested at 10 concentrations (20 μM-1 nM using 1:3 serial dilutions). […] IC50 values are calculated (IDBS ActivityBase software) for each compound using non-linear regression.

[2] = test system: pMAPKAPK2; assay: Inhibition of p-MAPKAPK2 in vitro (anisomycin-stimulated RAW 264.7 cells, ELISA); type: cell-based, murine; details: Mus musculus, RAW264.7, 2 hours compound, anisomicin 100 ug/ml 30 minutes, read-out: IC50, inhibition of pMAPKAPK2 enzyme production
Method: RAW 264.7 cells (a murine monocytic/macrophage line ATCC) are seeded at a density of 50,000 cells/well in 96-well plates with RPMI-1640 medium plus 10% fetal bovine serum (FBS) and allowed to settle and adhere to the bottom of the well for 48 hours. After reaching confluence, cells are treated for 2 hours with 10 serial dilutions of different compounds. A control compound is always included. After 2 hours, anisomicin (100 ug/ml) is added and cells are incubated for 30 minutes at 37° C. under a 5% CO2 atmosphere. Then, cells are fixed and treated with hydrogen peroxide in order to remove endogenous peroxidase. Finally, plates are blocked with FBS, washed, and an ELISA assay is carried out by using an antiphospho-MAPKAPK2 (Thr 334, Cell Signalling, Cat # 3041) antibody and ahP-Conjugated Secondary Antibody. This reaction is detected by using FEMTO (Pierce) which is an enhanced chemiluminiscent substrate ahP that results in rapid kinetic light output and high signal intensity. The compound exemplified in Example 12 is tested essentially as described above and is found to inhibit the pMAPKAPK2 enzyme production with an IC50 of 7 nM.

[3] = test system: TNFα; assay: Inhibition of TNFα in vivo (LPS challenge, plasma TNFα ELISA); details: female Balb/c mice, p.o., LPS 400 μg/kg IP 1 hour after compound, plasma 1.5 hours after LPS
Method: Compounds are administered p.o. (30, 10, 3 and 1 mg/kg) to female Balb/c mice (6 mice/dose). 1 hour following compound administration at 4 doses (P.O. at volume of 0.1 mL/mouse; vehicle: 1% NaCMC/0.25% Tween-80 in water); mice are given an IP-injection of LPS at 400 μg/kg. 1.5 hours after LPS challenging, mice are anesthetized with isoflurane and blood is taken via cardiac puncture. TNFa-levels in the plasma are determined using ELISA kit from R&D Systems and dose response ED50 is determined.
The compound exemplified in Example 12 is tested essentially as described above and suppressed TNFα in vivo with an TMED50 of 1.0 mg/kg. The Threshold Minimum Effective Dose (TMED) 50 is the dose at which greater than or equal to 50% inhibition was achieved and statistically different from control/placebo.

- IC50 [1]: 34 nM
- IC50 [2]: 7 nM
Compound: CS(=O)(=O)O.Cc1ccc(-n2nc(C3(C)CC3)cc2NC(=O)Nc2cnc(OC3CCN(C(=O)C4(C)CC4)CC3)c3ccccc23)cc1 [Example 12, 1-{1-[1-(1-Methyl-cyclopropanecarbonyl)-piperidin-4-yloxy]-isoquinolin-4-yl}-3-[5-(1-methyl-cyclopropyl)-2-p-tolyl-2H-pyrazol-3-yl]-urea mesylate]
- TMED50, suppression of TNFα in vivo [3]: 1.0 mg/kg
